Results published in paper PMC11513618 (RSC Advances, 2024).
Square brackets hold non-standard residues; d marks the D form. Peptide text beside a SMILES is read from it. * marks the point of attachment. X1 = CC(=O)N[C@@H]1[C@@H](O[C@@H]2O[C@H](CO)[C@H](O)[C@H](O)[C@H]2O)[C@@H](O)[C@@H](CO[C@@H]2O[C@H](CO)[C@@H](O[C@@H]3O[C@H](CO)[C@H](O)[C@H](O[C@]4(C(=O)O)C[C@H](O)[C@@H](NC(C)=O)[C@H]([C@H](O)[C@H](O)CO)O4)[C@H]3O)[C@H](O[C@@H]3O[C@@H](C)[C@@H](O)[C@@H](O)[C@@H]3O)[C@H]2NC(C)=O)O[C@@H]1*; Phe(4-CH2SO3H) = N[C@@H](Cc1ccc(CS(=O)(=O)O)cc1)C(=O)O

Biological target: human P-selectin (Fc chimera) binding to PSGL-1 on U-937 monocytes (Homo sapiens, UniProt P16109)
Assay: Flow cytometry: inhibition of P-selectin-Fc chimera binding to U-937 monocytes
Type: cell-based

- IC50: 11.1 µM
SMILES: CC(=O)N[C@H]1[C@H](OC[C@H]2O[C@H](O[C@H](C)[C@H](NC(=O)[C@H](CCC(=O)O)NC(=O)[C@@H]3CCCN3C(=O)[C@H](CC(C)C)NC(=O)[C@H](Cc3ccccc3)NC(=O)[C@H](CC(=O)O)NC(=O)[C@H](Cc3ccc(CS(=O)(=O)O)cc3)NC(=O)[C@H](CC(=O)O)NC(=O)[C@H](CC(C)C)NC(=O)[C@H](Cc3ccc(CS(=O)(=O)O)cc3)NC(=O)[C@H](CCC(=O)O)NC(=O)[C@H](Cc3ccc(CS(=O)(=O)O)cc3)NC(=O)[C@H](CCC(=O)O)NC(=O)[C@H](CCCCN)NC(C)=O)C(=O)N[C@@H](CCC(=O)O)C(=O)N3CCC[C@H]3C(=O)N[C@@H](CC(C)C)C(=O)O)[C@H](NC(C)=O)[C@@H](O[C@@H]3O[C@H](CO)[C@H](O)[C@H](O)[C@H]3O)[C@H]2O)O[C@H](CO)[C@@H](O[C@@H]2O[C@H](CO)[C@H](O)[C@H](O[C@]3(C(=O)O)C[C@H](O)[C@@H](NC(C)=O)[C@H]([C@H](O)[C@H](O)CO)O3)[C@H]2O)[C@@H]1O[C@@H]1O[C@@H](C)[C@@H](O)[C@@H](O)[C@@H]1O [GSnP-6] (Ac-KE[Phe(4-CH2SO3H)]E[Phe(4-CH2SO3H)]LD[Phe(4-CH2SO3H)]DFLPET(X1)EPL-OH; C-terminus assumed)
